Laboratory results from article PMC7802073, “Small Molecule Inhibitors of the Bacterioferritin (BfrB)–Ferredoxin (Bfd) Complex Kill Biofilm-Embedded Pseudomonas aeruginosa Cells” (ACS Infectious Diseases, 2020).
≈ marks a conversion by molar mass, not a printed value. Read-outs that look alike come from different tables or passages of the source.

Columns and labels:
Aqueous solubility = format: physicochemical; details: for solubility: PBS buffer, read-out: solubility in PBS buffer; for aqueous solubility (in words): aqueous solution
BfrB [1] = target: T1, BfrB (Pseudomonas aeruginosa, UniProt Q9HY79); experiment: Dissociation constant (Kd) for BfrB by fluorescence polarization; format: binding
Method: Dissociation constants for the interaction between BfrB and 3-aminoisoindoline-1,3-dione derivatives (Table 1, Figure S1) were measured in vitro with a fluorescence polarization method based on the intrinsic fluorescence of the isoindoline-1,3-dione moiety, as described previously.[25]
25 (A) and KM-5-66 (B) for BfrB, evaluated by fluorescence polarization, as described previously1.
Values were obtained in 100 mM potassium phosphate buffer (pH 7.6) containing 1 mM TCEP and
0.5% DMSO. The initial concentrations of KM-5-25 and KM-5-66 were 5 µM. The Kd values are the
average and standard deviation from three independent measurements. […]

P. aeruginosa PAO1 [2] = test system: P. aeruginosa PAO1; parameters: method as in PMID 31038945; details: planktonic growth, cited from earlier work
PA_1076058 = details: isolate purchased from JMI Laboratories, no MIC method given; cited from earlier work
PA_1081725 = details: isolate purchased from JMI Laboratories, no MIC method given; cited from earlier work
[3] = test system: Pellicles of P. aeruginosa PAO1 expressing EYFP; experiment: Pellicle biofilm assay, CLSM imaging and COMSTAT viable biomass; format: cell-based, Pseudomonas aeruginosa; details: 2-day old pellicles, 24 h
Method: Pellicle biofilms of EYFP-expressing P. aeruginosa PAO1 or clinical isolates were grown in PI media supplemented with 20 μM Fe. Starter cultures were diluted to OD600 = 0.001 in 4 mL media, placed in 35 × 10 mm Petri dishes and incubated statically at 30 °C for 48 h. The pellicles were transferred onto circular (1.5 cm diameter) glass coverslips by gently allowing the surface of a coverslip to contact a pellicle. The pellicle-adhered coverslip was washed in PBS and then deposited on top of 1.5 mL AB challenge media contained in a well of a 12-well microplate, with the pellicle exposed to the media. […] The coverslip-adhered pellicles were exposed to challenge media at 30 °C for 24 h, changing the challenge media every 12 h by transferring the pellicle-adhered coverslip to a new plate containing prewarmed challenge media.
Excess fluorescent dye was washed with PBS, the coverslip was mounted on a glass slide using 5 μL SlowFade (Invitrogen Life Technologies) and the edges sealed with fingernail polish. CLSM image stacks (z-step size of 0.3 μm) were acquired with the aid of a Leica TCS SP8 microscope, as described above. Quantitative analysis was performed by determination of pellicle biomass using COMSTAT[55] and the Otsu method of automatic thresholding.[86]

[4] = test system: EYFP-expressing P. aeruginosa PAO1 pellicles; experiment: Viable cells (CFU/mL) dispersed from pellicle biofilms; format: cell-based, Pseudomonas aeruginosa; details: 2-day old pellicles, 24 h
Method: Pellicle biofilms were grown as described above. Planktonic and loosely attached cells were washed (3 times) by immersing the coverslip-adhered pellicles (biofilm facing up) into a well of a 12-well plate containing 3 mL PBS, and incubating (5 min) with gentle rocking. To remove the pellicle from the coverslip, break the extracellular matrix and release cells from the biofilm, the coverslip-adhered pellicle was placed in a 50 mL conical tube containing a 2 mL suspension of zirconia beads (0.1 mm diameter, BioSpec Products), 10 mL PBS, 0.2 μg/mL alginate lyase and 0.2 μg/mL DNase. The resultant mixture was incubated at room temperature for 3 min, followed by vigorous vortexing for 4 min. After sedimentation of the zirconia beads, a 100 μL aliquot was used for serial dilution and plating on PIA plates for subsequent enumeration of viable cells (CFU/mL).

P. aeruginosa = test system: P. aeruginosa; parameters: method as in PMID 11420333; details: cited from earlier work
[5] = test system: EYFP-expressing P. aeruginosa PAO1 biofilms; experiment: Flow cell biofilm assay, CLSM imaging and COMSTAT viable biomass; format: cell-based, Pseudomonas aeruginosa; details: 3-day old flow cell biofilms, 24 h treatment, 25× MIC
Source text: The treated biofilms were counterstained with the cell impermeable fluorescent nucleic acid dye Sytox Red and then imaged with the aid of confocal laser scanning microscopy (CLSM).
Image stacks were acquired with a z-step size of 0.3 μm at randomly chosen positions.

P. aeruginosa PAO1 [6] = experiment: Half maximal inhibitory concentration (IC50) on planktonic growth, CFU/mL enumeration; format: cell-based, Pseudomonas aeruginosa; details: 24 h, 35 °C, 2% DMSO, this work
Method: Chemicals were purchased from Fisher Scientific unless otherwise stated. P. aeruginosa PAO1 was obtained from the University of Washington Genome center.[81] The PAO1 strain expressing enhanced yellow fluorescent protein (EYFP) was prepared previously.[26] Clinical isolates of P. aeruginosa were purchased from JMI Laboratories (North Liberty, IA, USA). […] Starter cultures were grown from a single colony at 37 °C and shaking at 220 rpm for 14 h in 5 mL PI media supplemented with 10 μM Fe. Pellicle biofilms were cultured for 48 h at 30 °C in PI media supplemented with 20 μM Fe. Surface-attached biofilms were cultured in AB minimal media[82] supplemented with trace metals [0.15 μM (NH4)2MoO4, 3 μM CuSO4, 2 μM Co(NO3)2, 9.4 μM Na2B4O7, and 7.6 μM ZnSO4], 3 mM glucose and 15 μM Fe. Iron supplementation was carried out by addition of a small volume of filter-sterilized 10 mM (NH4)2Fe(SO4)2 (pH ∼ 2.0) solution. […]; IC50 values (Table 1, Figure S1) were determined as reported previously[25] with small modifications. In brief: precultures of P. aeruginosa PAO1 (5 mL) were grown in LB media for 13 h at 37 °C and 220 rpm in 50 mL conical tubes (VWR International, PA). The cells were centrifuged for 5 min at 4000 rpm and 4 °C, washed two times and then diluted in buffer (100 mM KH2PO4 and 15 mM (NH4)2SO4) to an optical density at 600 nm (OD600) of 0.1. A small volume of compound stock solution (10 mM) was transferred to a microcentrifuge tube, initially diluted with DMSO to 20 μL, and then diluted to 1 mL with preculture cell suspension in defined media with OD600 = 0.0001, so the final DMSO concentration is 2%. The resultant cell suspension (200 μL) was transferred to a clear-bottom polystyrene 96-well plate (VWR) covered with a lid and incubated at 35 °C and 205 cpm for 24 h in a Synergy H1 microplate reader (Biotek Instruments Inc., Vermont). The cell cultures were serially diluted and then plated on PI Agar (PIA; BD biosciences) plates for enumeration of viable cells (CFU/mL). The % growth was calculated from the ratio CFU/mL(treated)/CFU/mL(untreated control). To calculate the IC50 values, the % growth was plotted as a function of compound concentration, expressed as log[compound] (μM), and fitted to the 4-parameter logistic model describing the sigmoid-shaped response pattern (eq 1),[84] where b is the slope factor, max is the upper asymptote (plateau), and min is the lower asymptote. Values are the average and standard deviation from three independent experiments. [drawing 1] 1

BfrB [7] = target: T1, BfrB; details: Bfd binding sites on BfrB equivalent and independent; cited from earlier work
[8] = Pseudomonas aeruginosa, PAO1, defined media, read-out: IC50

T1 sequence (Q9HY79 whole entry): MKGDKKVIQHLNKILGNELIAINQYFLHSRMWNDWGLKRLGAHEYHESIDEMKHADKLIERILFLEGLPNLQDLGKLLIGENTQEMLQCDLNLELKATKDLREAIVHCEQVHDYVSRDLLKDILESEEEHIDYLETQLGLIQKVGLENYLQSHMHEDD

With `O=C1NC(=O)c2c(NCc3c(O)cccc3Cl)cccc21` [KM-5-29, 4-((6-Chloro-2-hydroxybenzyl)amino)isoindoline-1,3-dione] the solubility (Aqueous solubility) was less than 30 µM, the “aqueous solubility (in words)” value (Aqueous solubility) was “poorly soluble in aqueous solution” and the Kd (BfrB [1]) was 6 ± 0.5 µM.

In the case of `Nc1cccc2c1C(=O)NC2=O` [Analog 8, 4-aminoisoindoline-1,3-dione], the IC50 (P. aeruginosa PAO1 [2]) is given as “not active”.

In the case of `CNC(C)C1CCC(N)C(OC2C(N)CC(N)C(OC3OCC(C)(O)C(NC)C3O)C2O)O1` (stereo not shown) [Gentamicin], the MIC (PA_1076058) is listed as greater than 16 µg/mL and the MIC (PA_1081725) is listed as 4 µg/mL (≈ 8.38 µM).

For `NC[C@H]1O[C@H](O[C@H]2[C@H](O)[C@@H](O[C@H]3O[C@H](CO)[C@@H](O)[C@H](N)[C@H]3O)[C@H](N)C[C@@H]2N)[C@H](N)C[C@@H]1O` [tobramycin], the MIC (PA_1076058) is listed as greater than 16 µg/mL, the “tolerance of pellicle biofilms (CLSM)” value ([3]; 25× and 50× the MIC) is listed as “tolerant” and the “% cell survival, CFU/mL(after treatment)/CFU/mL(pretreatment)” value (from here on “% cell survival”) ([4]; 25× MIC) is listed as roughly 70%. The “% cell survival” value ([4]; 50× MIC) was roughly 70%, the MIC (P. aeruginosa; reported MIC converted to μM) was 1.07 µM and the MIC (P. aeruginosa; reported MIC) was 0.5 µg/mL. The MIC (PA_1081725) was 16 µg/mL (≈ 34.2 µM) and the “% survival (viable biomass, COMSTAT)” value [5] was roughly 70%.

In the case of `O=C1NC(=O)c2c(NCc3cccc(O)c3)cccc21` [BN-XIV-53], the IC50 (P. aeruginosa PAO1 [6]; defined media) is reported as “not active at 120 μM” and the Kd (BfrB [1]) is reported as 21 ± 3 µM.

In the case of colistin, the “fluorescence signal from viable cells expressing EYFP” value ([3]; 50× MIC) is reported as “undetectable”, the “susceptibility of pellicle biofilms (CLSM)” value ([3]; concentrations above 10× MIC) is reported as “susceptible” and the “% cell survival” value ([4]; 25× MIC) is reported as roughly 10%. For the same molecule, the “% cell survival” value ([4]; 50× MIC) was roughly 1%, the MIC (P. aeruginosa; reported MIC converted to μM) was 0.79 µM and the MIC (P. aeruginosa; reported MIC) was 1 µg/mL. The “% survival (viable biomass, COMSTAT)” value [5] was roughly 20%.

For `C[C@@H](O)[C@H]1C(=O)N2C(C(=O)O)=C(S[C@@H]3CN[C@H](C(=O)N(C)C)C3)[C@H](C)[C@H]12` [Meropenem], the MIC (PA_1076058) is given as 4 µg/mL (≈ 10.4 µM) and the MIC (PA_1081725) is given as 32 µg/mL (≈ 83.4 µM).

For `NCC[C@H](O)C(=O)N[C@@H]1C[C@H](N)[C@@H](O[C@H]2O[C@H](CN)[C@@H](O)[C@H](O)[C@H]2O)[C@H](O)[C@H]1O[C@H]1O[C@H](CO)[C@@H](O)[C@H](N)[C@H]1O` [Amikacin], the MIC (PA_1076058) is listed as 4 µg/mL (≈ 6.83 µM) and the MIC (PA_1081725) is listed as 16 µg/mL (≈ 27.3 µM).

In the case of `O=C1NC(=O)c2c(NCCCc3cccc(O)c3)cccc21` [Analog 16], the IC50 (P. aeruginosa PAO1 [2]; read-out: IC50) is given as 121 ± 4 µM.

For `O=C(O)c1cn(C2CC2)c2cc(N3CCNCC3)c(F)cc2c1=O` [ciprofloxacin], the MIC (PA_1076058) is listed as greater than 16 µg/mL, the MIC (P. aeruginosa; reported MIC converted to μM) is listed as 0.75 µM and the MIC (P. aeruginosa; reported MIC) is listed as 0.25 µg/mL. The MIC (PA_1081725) was 16 µg/mL (≈ 48.3 µM).

In the case of `C[C@H]1[C@H](NC(=O)/C(=N\OC(C)(C)C(=O)O)c2csc(N)n2)C(=O)N1S(=O)(=O)O` [Aztreonam], the MIC (PA_1076058) is given as 16 µg/mL (≈ 36.7 µM) and the MIC (PA_1081725) is given as greater than 16 µg/mL.

In the case of `O=C1NC(=O)c2c(NCc3ccccc3O)cccc21` [Analog 11], the IC50 (P. aeruginosa PAO1 [2]; read-out: IC50) is given as 258 ± 23 µM.

In the case of `C[C@H]1c2cccc(O)c2C(=O)C2=C(O)[C@]3(O)C(=O)C(C(N)=O)=C(O)[C@@H](N(C)C)[C@@H]3[C@@H](O)[C@@H]21` [Doxycycline], the MIC (PA_1076058) is listed as greater than 8 µg/mL and the MIC (PA_1081725) is listed as 4 µg/mL (≈ 9 µM).

In the case of `O=C1NC(=O)c2c(NCCCc3ccccc3O)cccc21` [KM-5-28], the IC50 (P. aeruginosa PAO1 [6]; [8]) is reported as 96 ± 1 µM and the Kd (BfrB [1]) is reported as 1.4 ± 0.2 µM.

In the case of `CC(C)(O/N=C(\C(=O)N[C@@H]1C(=O)N2C(C(=O)[O-])=C(C[n+]3ccccc3)CS[C@H]12)c1csc(N)n1)C(=O)O` [Ceftazidime], the MIC (PA_1076058) is given as greater than 32 µg/mL and the MIC (PA_1081725) is given as greater than 32 µg/mL.

For `O=C1NC(=O)c2c(NCc3cc(F)ccc3O)cccc21` [JAG-5-7, 4-((5-Fluoro-2-hydroxybenzyl)amino)isoindoline-1,3-dione], the IC50 (P. aeruginosa PAO1 [6]; [8]) was 128 ± 26 µM and the Kd (BfrB [1]) was 7 ± 2 µM.

In the case of `O=C1NC(=O)c2c(NCCCc3cc(Cl)ccc3O)cccc21` [KM-5-54], the solubility (Aqueous solubility) is reported as less than 30 µM, the “aqueous solubility (in words)” value (Aqueous solubility) is reported as “poor water solubility” and the Kd (BfrB [1]) is reported as 0.22 ± 0.04 µM.

In the case of `O=C1NC(=O)c2c(NCCCc3cc(O)cc(O)c3)cccc21` [KM-5-57], the IC50 (P. aeruginosa PAO1 [6]; defined media) is reported as “not active at 200 μM” and the Kd (BfrB [1]) is reported as 2.5 ± 0.4 µM.

With `O=C1NC(=O)c2c(NCc3cccc(Cl)c3O)cccc21` [KM-5-30, 4-((3-Chloro-2-hydroxybenzyl)amino)isoindoline-1,3-dione] the IC50 (P. aeruginosa PAO1 [6]; [8]) was 156 ± 30 µM and the Kd (BfrB [1]) was 6 ± 1 µM.

With `O=C1NC(=O)c2c(NCCCc3cc(F)ccc3O)cccc21` [JAG-5-6, 4-((3-(5-fluoro-2-hydroxyphenyl)propyl)amino)isoindoline-1,3-dione] the IC50 (P. aeruginosa PAO1 [6]; [8]) was 54 ± 9 µM and the Kd (BfrB [1]) was 0.43 ± 0.07 µM.

`O=C1NC(=O)c2c(NCc3cc(O)cc(Cl)c3)cccc21` [KM-5-50, 4-((5-Chloro-3-hydroxybenzyl)amino)isoindoline-1,3-dione] gave an IC50 (P. aeruginosa PAO1 [6]; [8]) of 82 ± 16 µM and a Kd (BfrB [1]) of 11 ± 2 µM.

B1: Bfd: bacterioferritin-associated ferredoxin, a [2Fe-2S] protein that binds BfrB to mobilize stored iron (protein, UniProt Q9HY80 1-73, looked up)
Bacterioferritin-associated …: MYVCLCQGVTDNQIRDAIYEGCCSYREVREATGVGTQCGKCACLAKQVVRETLNDLQSAQPVPAFGTTAFVAA
In the case of B1, the Kd (BfrB [7]) is listed as 3 µM.
